Data: US20210045385A1, “PYRIDAZINONE-SUBSTITUTED KETOXIMES AS HERBICIDES” (FMC Corporation, priority 2018, published 2021)

Experiments:
Format in all cases: in vivo
[1] = tested on: Italian ryegrass (Lolium mutiflorum); test: Test C preemergence, visual plant response rating; settings: Test C, 0 is no effect, 100 is complete control
Procedure, shortened: (§1)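 Visual injury on a 0 (no effect) to 100 (complete control) scale versus untreated controls, scored approximately 10 d after treatment under greenhouse conditions. Treatments used surfactant-containing non-phytotoxic solvent formulations, sprayed onto loam–sand soil preemergence or onto one- to two-leaf plants 2–10 cm tall postemergence.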

[2] = tested on: barnyardgrass (Echinochloa crus-galli); test: Test C preemergence, visual plant response rating; settings: Test C, 0 is no effect, 100 is complete control
Procedure, shortened: as §1

[3] = tested on: foxtail, giant (giant foxtail, Setaria faberi); test: Test C preemergence, visual plant response rating; settings: Test C, 0 is no effect, 100 is complete control
Procedure, shortened: as §1

kochia (Bassia scoparia) [4] = test: Test C preemergence, visual plant response rating; settings: Test C, 0 is no effect, 100 is complete control
Procedure, shortened: as §1

[5] = tested on: pigweed (Amaranthus retroflexus); test: Test C preemergence, visual plant response rating; settings: Test C, 0 is no effect, 100 is complete control
Procedure, shortened: as §1

[6] = tested on: ragweed (common ragweed, Ambrosia artemisiifolia); test: Test C preemergence, visual plant response rating; settings: Test C, 0 is no effect, 100 is complete control
Procedure, shortened: as §1

[7] = tested on: Italian ryegrass (Lolium mutiflorum); test: Test C postemergence, visual plant response rating
Procedure, shortened: as §1

[8] = tested on: barnyardgrass (Echinochloa crus-galli); test: Test C postemergence, visual plant response rating
Procedure, shortened: as §1

[9] = tested on: blackgrass (Alopecurus myosuroides); test: Test C postemergence, visual plant response rating
Procedure, shortened: as §1

corn (Zea mays) = test: Test C postemergence, visual plant response rating
Procedure, shortened: as §1

[10] = tested on: foxtail, giant (giant foxtail, Setaria faberi); test: Test C postemergence, visual plant response rating
Procedure, shortened: as §1

[11] = tested on: galium (catchweed bedstraw, Galium aparine); test: Test C postemergence, visual plant response rating
Procedure, shortened: as §1

kochia (Bassia scoparia) [12] = test: Test C postemergence, visual plant response rating
Procedure, shortened: as §1

[13] = tested on: pigweed (Amaranthus retroflexus); test: Test C postemergence, visual plant response rating
Procedure, shortened: as §1

[14] = tested on: ragweed (common ragweed, Ambrosia artemisiifolia); test: Test C postemergence, visual plant response rating
Procedure, shortened: as §1

[15] = tested on: wheat (Triticum aestivum); test: Test C postemergence, visual plant response rating
Procedure, shortened: as §1

[16] = tested on: barnyardgrass (Echinochloa crus-galli); test: Test D flooded paddy test, visual plant response rating; settings: 250 g ai/ha, scale 0 to 100 (0 no effect, 100 complete control), 13 to 15 d
Procedure, shortened: (§2)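 Rating is visual, on a 0 (no effect) to 100 (complete control) scale versus controls, taken 13 to 15 d after treatment in a greenhouse. Treatment went into paddy water kept 3 cm above the soil surface, with plants at the 2-leaf stage.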

[17] = tested on: duck salad (Heteranthera limosa); test: as above; settings: 250 g ai/ha, scale 0 to 100 (0 no effect, 100 complete control), 13 to 15 d
Procedure, shortened: as §2

rice (Oryza sativa) = test: as above; settings: 250 g ai/ha, scale 0 to 100 (0 no effect, 100 complete control), 13 to 15 d
Procedure, shortened: as §2

[18] = tested on: sedge umbrella (small-flower umbrella sedge, Cyperus difformis); test: as above; settings: 250 g ai/ha, scale 0 to 100 (0 no effect, 100 complete control), 13 to 15 d
Procedure, shortened: as §2

[19] = Test C, postemergence, 125 g ai/ha

SMILES | Ryegrass, Italian plant response rating (0 to 100 scale) ([1]; 31 g ai/ha) | Ryegrass, Italian plant response rating (0 to 100 scale) ([1]; 125 g ai/ha) | Barnyardgrass plant response rating (0 to 100 scale) ([2]; 31 g ai/ha) | Barnyardgrass plant response rating (0 to 100 scale) ([2]; 125 g ai/ha) | Foxtail, Giant plant response rating (0 to 100 scale) ([3]; 31 g ai/ha) | Foxtail, Giant plant response rating (0 to 100 scale) ([3]; 125 g ai/ha) | Kochia plant response rating (0 to 100 scale) (kochia (Bassia scoparia) [4]; 31 g ai/ha) | Kochia plant response rating (0 to 100 scale) (kochia (Bassia scoparia) [4]; 125 g ai/ha) | Pigweed plant response rating (0 to 100 scale) ([5]; 31 g ai/ha) | Pigweed plant response rating (0 to 100 scale) ([5]; 125 g ai/ha) | Ragweed plant response rating (0 to 100 scale) ([6]; 31 g ai/ha) | Ragweed plant response rating (0 to 100 scale) ([6]; 125 g ai/ha) | Ryegrass, Italian plant response rating (0 to 100 scale) ([7]; Postemergence, 31 g ai/ha) | Ryegrass, Italian plant response rating (0 to 100 scale) [7, 19] | Barnyardgrass plant response rating (0 to 100 scale) ([8]; Postemergence, 31 g ai/ha) | Barnyardgrass plant response rating (0 to 100 scale) [8, 19] | Blackgrass plant response rating (0 to 100 scale) ([9]; Postemergence, 31 g ai/ha) | Blackgrass plant response rating (0 to 100 scale) [9, 19] | Corn plant response rating (0 to 100 scale) (corn (Zea mays); Postemergence, 31 g ai/ha) | Corn plant response rating (0 to 100 scale) (corn (Zea mays); [19]) | other results
CON=C(c1cc(Cl)cc(Cl)c1Cl)c1c(O)c(C)nn(C)c1=O [Compound 214] | 90 | 100 | 70 | 90 | 80 | 100 | 20 | 70 | 80 | 100 | 20 | 100 | 80 | 100 | 70 | 80 | 30 | 80 | 30 | 40 | Foxtail, Giant plant response rating (0 to 100 scale) ([10]; Postemergence, 31 g ai/ha): 80; Foxtail, Giant plant response rating (0 to 100 scale) [10, 19]: 80; Galium plant response rating (0 to 100 scale) ([11]; Postemergence, 31 g ai/ha): 90; Galium plant response rating (0 to 100 scale) [11, 19]: 90; Kochia plant response rating (0 to 100 scale) (kochia (Bassia scoparia) [12]; Postemergence, 31 g ai/ha): 70; Kochia plant response rating (0 to 100 scale) (kochia (Bassia scoparia) [12]; [19]): 80; Pigweed plant response rating (0 to 100 scale) ([13]; Postemergence, 31 g ai/ha): 80; Pigweed plant response rating (0 to 100 scale) [13, 19]: 90; Ragweed plant response rating (0 to 100 scale) ([14]; Postemergence, 31 g ai/ha): 80; Ragweed plant response rating (0 to 100 scale) [14, 19]: 90; Wheat plant response rating (0 to 100 scale) ([15]; Postemergence, 31 g ai/ha): 40; Wheat plant response rating (0 to 100 scale) [15, 19]: 70; Plant response rating, Barnyardgrass (Flood) [16]: 70; Plant response rating, Ducksalad (Flood) [17]: 70; Plant response rating, Rice (Flood) (rice (Oryza sativa)): 45; Plant response rating, Sedge, Umbrella (Flood) [18]: 70
CO/N=C(/c1ccc(Cl)c(Cl)c1)c1c(O)c(C)nn(C)c1=O [Compound 216] | 0 | 10 | 50 | 0 | 0 | 0 | 0 | 0 | 0 | 0 | 0 | 0 | 0 | 0 | 0 | 10 | 0 | 0 | 0 | 0 | Foxtail, Giant plant response rating (0 to 100 scale) ([10]; Postemergence, 31 g ai/ha): 0; Foxtail, Giant plant response rating (0 to 100 scale) [10, 19]: 0; Galium plant response rating (0 to 100 scale) ([11]; Postemergence, 31 g ai/ha): 30; Galium plant response rating (0 to 100 scale) [11, 19]: 80; Kochia plant response rating (0 to 100 scale) (kochia (Bassia scoparia) [12]; Postemergence, 31 g ai/ha): 20; Kochia plant response rating (0 to 100 scale) (kochia (Bassia scoparia) [12]; [19]): 50; Pigweed plant response rating (0 to 100 scale) ([13]; Postemergence, 31 g ai/ha): 0; Pigweed plant response rating (0 to 100 scale) [13, 19]: 20; Ragweed plant response rating (0 to 100 scale) ([14]; Postemergence, 31 g ai/ha): 10; Ragweed plant response rating (0 to 100 scale) [14, 19]: 40; Wheat plant response rating (0 to 100 scale) ([15]; Postemergence, 31 g ai/ha): 0; Wheat plant response rating (0 to 100 scale) [15, 19]: 0; Plant response rating, Barnyardgrass (Flood) [16]: 0; Plant response rating, Ducksalad (Flood) [17]: 0; Plant response rating, Rice (Flood) (rice (Oryza sativa)): 0; Plant response rating, Sedge, Umbrella (Flood) [18]: 0
